Reference: patent US11142527B2, “Dihydropyrimidine compounds and uses thereof in medicine” (SUNSHINE LAKE PHARMA CO., LTD., priority 2017, dated 2021)

Tested on: HBV
Assay: Test of anti HBV activity in vitro (viral DNA by qPCR)
Type: cell-based
Settings: Hepatitis B virus; HepG2.2.15 cells, viral DNA in cell culture supernatant by qPCR; read-out: EC50 values of the compound of the invention on viral replication
Method: Test 1: Test Method of Calculating Anti HBV EC50
HBV Cell Line and Culture Conditions
HepG2.2.15 (SELLS, PNAS, 1987 and SELLS, JV, 1988) chromosomes have an integrated complete HBV genome, and stably express viral RNA and viral protein. HepG2.2.15 cells can secrete mature HBV particles, HBsAg and HBeAg, to medium. HepG2.2.15 cells were cultured in DMEM containing 10% fetal bovine serum, 100 U/mL penicillin, 100 U/mL streptomycin, 1% non essential amino acid, 1 mM sodium pyruvate and 300 μg/mL G418.
Viral particles DNA secreted from HepG2.2.15 cells can be quantified by qPCR, and the effect of the compound on viral replication can be detected.
Test of Anti HBV Activity In Vitro
8000 HepG 2.2.15 cells per well were seeded into a 96-well plate, the plate was cultured at 37° C. and 5% CO2 for 3 days till the cells grew to full wells. Old liquid medium can be removed and replaced with new medium (200 μL) on day 0.
Formulating the compound and treating the cells in the experiment of anti virus: the compound was dissolved in DMSO to a concentration of 30 mM, and then the compound solution was diluted with DMSO to a concentration of 800 μM, and then eight dilutions at 4 fold were performed, the highest concentration is 800 μM. The serial diluted compound was added to the above plate at 1 μL per well, the highest final concentration in the experiment is 4 μM (200 fold dilution). TDF (tenofovir dipiroxil fumarate, Selleck, Cat S1400) has a highest concentration of 4 μM as a positive control. 1 μL of DMSO was added in to the […] at a final concentration of 0.5%, TDF was added in to the […] at a final concentration of 1 μM.
Detection of Viral Genomic DNA by aPCR
Primer: HBV-For-202, […]; HBV-Rev-315, […]. Copies of virus can be calculated using a standard curve plotted by using plasmid containing HBV genome and using SYBR Premix Ex Taq II—Takara DRR081S kit and 1 μL cell culture supernatant as a template. EC50 values of the compound on viral replication were calculated by a four parametric nonlinear regression model using Graphpad Prism 5 software to manage concentration—viral copy number.

Compound	EC50 [nM]
COC(=O)C1=C(CN2CCN3C(=O)N(c4ccc(Oc5cccc(C(=O)O)c5)cn4)C[C@@H]3C2)NC(c2nccs2)=N[C@H]1c1ccc(F)cc1Cl [Example 16, 3-((6-((S)-7-(((R)-6-(2-chloro-4-fluorophenyl)-5-(methoxycarbonyl)-2-(thiazol-2-yl)-3,6-dihydropyrimidin-4-yl)methyl)-3-oxohexahydroimidazo[1,5-a]pyrazin-2(3H)-yl)pyridin-3-yl)oxy)benzoic acid]	12
COC(=O)C1=C(CN2CCN3C(=O)N(c4ccc(C5(C(=O)O)CCCC5)cc4)C[C@@H]3C2)NC(c2nccs2)=N[C@H]1c1ccc(F)cc1Cl [Example 29, 1-(4-((S)-7-(((R)-6-(2-chloro-4-fluorophenyl)-5-(methoxycarbonyl)-2-(thiazol-2-yl)-3,6-dihydroprimidin-4-yl)methyl)-3-oxohexahydroimidazo[1,5-a]pyrazin-2(3H)-yl)phenyl) cyclopentane carboxylic acid]	6
COC(=O)C1=C(CN2CCN3C(=O)N(CC#Cc4cccc(C(=O)O)c4)C[C@@H]3C2)NC(c2nccs2)=N[C@H]1c1ccc(F)cc1Cl [Example 2, 3-(3-((S)-7-(((R)-6-(2-chloro-4-fluorophenyl)-5-(methoxycarbonyl)-2-(thiazol-2-yl)-3,6-dihydropyrimidin-4-yl)methyl)-3-oxohexahydroimidazo[1,5-a]pyrazin-2(3H)-yl)prop-1-yn-1-yl)benzoic acid]	10.4
COC(=O)C1=C(CN2CCN3C(=O)N(c4ccc(Oc5ccc(C(=O)O)cn5)cc4)C[C@@H]3C2)NC(c2nccs2)=N[C@H]1c1ccc(F)cc1Cl [Example 78, 6-(4-((S)-7-(((R)-6-(2-chloro-4-fluorophenyl)-5-(methoxycarbonyl)-2-(thiazol-2-yl)-3,6-dihydropyrimidin-4-yl)methyl)-3-oxohexahydroimidazo[1,5-a]pyrazin-2(3H)-yl)phenoxy)nicotinic acid]	38.7
COC(=O)C1=C(CN2CCN3C(=O)N(c4ccc5[nH]c(C6CCCN6C)nc5c4)C[C@@H]3C2)NC(c2nccs2)=N[C@H]1c1ccc(F)cc1Cl (stereo partly drawn) [Example 108, (4R)-methyl 4-(2-chloro-4-fluorophenyl)-6-(((8aS)-2-(2-(1-methylpyrrolidin-2-yl)-1H-benzo[d]imidazol-5-yl)-3-oxohexahydroimidazo[1,5-a]pyrazin-7(1H)-yl)methyl)-2-(thiazol-2-yl)-1,4-dihydropyrimidine-5-carboxylate]	6.8
COC(=O)C1=C(CN2CCN3C(=O)N(c4nc(-c5ccc(C(=O)O)cc5)cs4)C[C@@H]3C2)NC(c2nccs2)=N[C@H]1c1ccc(F)cc1Cl [Example 15, 4-(2-((S)-7-(((R)-6-(2-chloro-4-fluorophenyl)-5-(methoxycarbonyl)-2-(thiazol-2-yl)-3,6-dihydropyrimidin-4-yl)methyl)-3-oxohexahydroimidazo[1,5-a]pyrazin-2(3H)-yl)thiazol-4-yl)benzoic acid]	10.8
COC(=O)C1=C(CN2CCN3C(=O)N(CC#Cc4ccc(C(=O)O)c(OC)c4)C[C@@H]3C2)NC(c2nccs2)=N[C@H]1c1ccc(F)cc1Cl [Example 52, 4-(3-((S)-7-(((R)-6-(2-chloro-4-fluorophenyl)-5-(methoxycarbonyl)-2-(thiazol-2-yl)-3,6-dihydropyrimidin-4-yl)methyl)-3-oxohexahydroimidazo[1,5-a]pyrazin-2(3H)-yl)prop-1-yn-1-yl)-2-methoxybenzoic acid]	41.8
COC(=O)C1=C(CN2CCN3C(=O)N(CC#Cc4ccc(OC)cc4)C[C@@H]3C2)NC(c2nccs2)=N[C@H]1c1ccc(F)cc1Cl [Example 45, (R)-methyl 4-(2-chloro-4-fluorophenyl)-6-(((S)-2-(3-(4-methoxyphenyl)prop-2-yn-1-yl)-3-oxohexahydroimidazo[1,5-a]pyrazin-7(1H)-yl)methyl)-2-(thiazol-2-yl)-1,4-dihydropyrimidine-5-carboxylate]	14.4
COC(=O)C1=C(CN2CCN3C(=O)N(c4cc(F)cc(N5CCO[C@H](CCC(=O)O)C5)c4)C[C@@H]3C2)NC(c2nccs2)=N[C@H]1c1ccc(F)cc1Cl [Example 131, 3-((R)-4-(3-((S)-7-(((R)-6-(2-chloro-4-fluorophenyl)-5-(methoxycarbonyl)-2-(thiazol-2-yl)-3,6-dihydropyrimidin-4-yl)methyl)-3-oxohexahydroimidazo[1,5-a]pyrazin-2(3H)-yl)5-fluorophenyl)morpholin-2-yl)propanoic acid]	8.6
CCc1c[nH]c(-c2ccc(N3C[C@@H]4CN(CC5=C(C(=O)OC)[C@H](c6ccc(F)cc6Cl)N=C(c6nccs6)N5)CCN4C3=O)cc2)n1 [Example 109, (R)-methyl 4-(2-chloro-4-fluorophenyl)-6-(((S)-2-(4-(4-ethyl-1H-imidazol-2-yl)phenyl)-3-oxohexahydroimidazo[1,5-a]pyrazin-7(1H)-yl)methyl)-2-(thiazol-2-yl)-1,4-dihydropyrimidine-5-carboxylate]	12.4
COC(=O)C1=C(CN2CCN3C(=O)N(c4ccc(-c5nc(C6CCCCC6)c[nH]5)cc4)C[C@@H]3C2)NC(c2nccs2)=N[C@H]1c1ccc(F)cc1Cl [Example 110, (R)-methyl 4-(2-chloro-4-fluorophenyl)-6-(((S)-2-(4-(5-cyclohexyl-1H-imidazol-2-yl)phenyl)-3-oxohexahydroimidazo[1,5-a]pyrazin-7(1H)-yl)methyl)-2-(thiazol-2-yl)-1,4-dihydropyrimidine-5-carboxylate]	30.5
COC(=O)C1=C(CN2CCN3C(=O)N(CC#Cc4ccc(C(=O)O)cc4OC)C[C@@H]3C2)NC(c2nccs2)=N[C@H]1c1ccc(F)cc1Cl [Example 53, 4-(3-((S)-7-(((R)-6-(2-chloro-4-fluorophenyl)-5-(methoxycarbonyl)-2-(thiazol-2-yl)-3,6-dihydropyrimidin-4-yl)methyl)-3-oxohexahydroimidazo[1,5-a]pyrazin-2(3H)-yl)prop-1-yn-1-yl)-3-methoxybenzoic acid]	34.1
CONC(=O)c1ccc(C#CCN2C[C@@H]3CN(CC4=C(C(=O)OC)[C@H](c5ccc(F)cc5Cl)N=C(c5nccs5)N4)CCN3C2=O)cc1 [Example 40, (R)-methyl 4-(2-chloro-4-fluorophenyl)-6-(((S)-2-(3-(4-(methoxycarbamoyl)phenyl)prop-2-yn-1-yl)-3-oxohexahydroimidazo[1,5-a]pyrazin-7(1H)-yl)methyl)-2-(thiazol-2-yl)-1,4-dihydropyrimidine-5-carboxylate]	8.2
COC(=O)C1=C(CN2CCN3C(=O)N(c4ccc(-c5ccc(C(=O)O)cc5)cc4F)C[C@@H]3C2)NC(c2nccs2)=N[C@H]1c1ccc(F)cc1Cl [Example 113, 4′-((S)-7-(((R)-6-(2-chloro-4-fluorophenyl)-5-(methoxycarbonyl)-2-(thiazol-2-yl)-3,6-dihydropyrimidin-4-yl)methyl)-3-oxohexahydroimidazo[1,5-a]pyrazin-2(3H)-yl)-3′-fluoro-[1,1′-biphenyl]-4-carboxylic acid]	23.9
COC(=O)C1=C(CN2CCN3C(=O)N(c4ccc(C5(C(=O)O)CCCCC5)cc4)C[C@@H]3C2)NC(c2nccs2)=N[C@H]1c1ccc(F)cc1Cl [Example 30, 1-(4-((S)-7-(((R)-6-(2-chloro-4-fluorophenyl)-5-(methoxycarbonyl)-2-(thiazol-2-yl)-3,6-dihydropyrimidin-4-yl)methyl)-3-oxohexahydroimidazo[1,5-a]pyrazin-2(3H)-yl)phenyl) cyclohexanecarboxylic acid]	9
COC(=O)C1=C(CN2CCN3C(=O)N(CC#Cc4ccc(C(N)=O)cc4)C[C@@H]3C2)NC(c2nccs2)=N[C@H]1c1ccc(F)cc1Cl [Example 39, (R)-methyl 6-(((S)-2-(3-(4-carbamoylphenyl)prop-2-yn-1-yl)-3-oxohexahydroimidazo[1,5-a]pyrazin-7(1H)-yl)methyl)-4-(2-chloro-4-fluorophenyl)-2-(thiazol-2-yl)-1,4-dihydropyrimidine-5-carboxylate]	6.6
COC(=O)C1=C(CN2CCN3C(=O)N(c4ccc(-c5ccc(C(=O)O)cc5F)cc4F)C[C@@H]3C2)NC(c2nccs2)=N[C@H]1c1ccc(F)cc1Cl [Example 120]	25.5
COC(=O)C1=C(CN2CCN3C(=O)N(c4ccc(-c5ccc(C(=O)O)cc5)cc4)C[C@@H]3C2)NC(c2nccs2)=N[C@H]1c1ccc(F)cc1Cl [Example 12]	13
COC(=O)C1=C(CN2CCN3C(=O)N(c4ccc(Oc5ccc(C(=O)O)cc5F)cc4F)C[C@@H]3C2)NC(c2nccs2)=N[C@H]1c1ccc(F)cc1Cl [Example 14, 4-(4-((S)-7-(((R)-6-(2-chloro-4-fluorophenyl)-5-(methoxycarbonyl)-2-(thiazol-2-yl)-3,6-dihydropyrimidin-4-yl)methyl)-3-oxohexahydroimidazo[1,5-a]pyrazin-2(3H)-yl)-3-fluorophenoxy)-3-fluorobenzoic acid]	22.7
